Source: patent publication US20080207529A1, “Isolated Dipeptides with Ace Inhibitor Effect” (CHR. HANSEN A/S, priority 2005, published 2008)

Biological target: angiotensin-converting enzyme (ACE) (Homo sapiens, UniProt P12821)
Experiment: BioSelact on-line ACE inhibitor bioassay (Kiadis)
Type: biochemical
Conditions: determined by the BioSelect method of Kiadis of aqueous extracts of the fat+cell fraction
Protocol: Supernatants of whole fermentations, whey liquids, chloroform and aqueous extracts from fat/cell fractions were all pH adjusted before analysis. First the solutions were adjusted to pH 3. After centrifugation the precipitate was removed. During a second step the pH was adjusted to 7.5 (pH of bioassay). Again precipitate was removed from the solution after centrifugation. The remaining supernatants were used for BioSelact analysis.
250 mg of fat/cell preparation was extracted with 250 μl MilliQ. The solution was positioned on a flat shaker for 2 hours at room temperature. The fat/cell fraction was removed after extraction by centrifugation.
During the first step of the BioSelact analysis, the aqueous solutions were analyzed by applying a general chromatographic gradient: 5-95% MeOH/0.05% TFA in 75 min. For these general analyses a Phenomenex, LUNA C18(2), 5 μm, 2*250 mm analytical column was used. The chromatographic separation was carried out at a flow rate of 0.2 ml/min at ambient temperature. The injection volume was 250 μl. The organic modifier concentration in the Liquid Chromatography (LC) effluent was decreased to bioassay compatible levels by performing continuous dilution using the BioGradient composition from Kiadis. […]
After completing the first general chromatographic ‘sweep’, the presence of bioactivity in each sample was carefully assessed by the Kiadis ACE inhibitor assay. […]

angiotensin-converting enzyme (ACE), sequence (P12821 30-1306, species assumed): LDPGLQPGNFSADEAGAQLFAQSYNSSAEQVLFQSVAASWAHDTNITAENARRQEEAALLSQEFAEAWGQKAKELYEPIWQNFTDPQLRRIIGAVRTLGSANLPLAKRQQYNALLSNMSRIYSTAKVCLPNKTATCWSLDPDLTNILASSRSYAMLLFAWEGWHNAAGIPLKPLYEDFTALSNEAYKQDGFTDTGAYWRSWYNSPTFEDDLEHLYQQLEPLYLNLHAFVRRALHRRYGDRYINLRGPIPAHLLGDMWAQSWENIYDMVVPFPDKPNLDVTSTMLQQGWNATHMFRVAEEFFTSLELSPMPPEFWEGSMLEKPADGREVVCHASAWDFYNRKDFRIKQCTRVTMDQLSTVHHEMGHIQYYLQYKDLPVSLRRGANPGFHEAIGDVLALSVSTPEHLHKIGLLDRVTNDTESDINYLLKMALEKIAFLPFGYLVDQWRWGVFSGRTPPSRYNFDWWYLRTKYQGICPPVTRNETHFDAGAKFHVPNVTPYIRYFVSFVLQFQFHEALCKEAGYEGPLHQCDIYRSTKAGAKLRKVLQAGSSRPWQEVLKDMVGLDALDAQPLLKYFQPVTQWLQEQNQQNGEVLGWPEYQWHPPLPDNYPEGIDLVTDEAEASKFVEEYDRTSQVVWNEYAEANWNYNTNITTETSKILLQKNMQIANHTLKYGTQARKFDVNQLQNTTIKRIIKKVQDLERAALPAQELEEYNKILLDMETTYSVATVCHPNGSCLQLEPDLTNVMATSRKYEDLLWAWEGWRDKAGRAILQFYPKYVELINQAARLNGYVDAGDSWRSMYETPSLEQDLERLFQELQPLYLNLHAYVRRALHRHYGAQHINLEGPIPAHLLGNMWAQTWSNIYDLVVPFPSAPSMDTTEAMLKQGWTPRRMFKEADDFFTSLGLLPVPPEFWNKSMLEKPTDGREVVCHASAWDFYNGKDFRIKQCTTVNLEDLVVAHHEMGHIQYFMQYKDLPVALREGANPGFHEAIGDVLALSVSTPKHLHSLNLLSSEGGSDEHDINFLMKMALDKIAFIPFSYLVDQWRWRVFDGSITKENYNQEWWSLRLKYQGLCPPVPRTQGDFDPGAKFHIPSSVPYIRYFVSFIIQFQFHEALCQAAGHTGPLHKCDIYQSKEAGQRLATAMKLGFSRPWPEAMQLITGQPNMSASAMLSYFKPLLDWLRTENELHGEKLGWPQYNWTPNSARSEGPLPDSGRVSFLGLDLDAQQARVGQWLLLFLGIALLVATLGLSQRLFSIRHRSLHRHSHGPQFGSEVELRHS

## Ile-Pro-Pro [IPP]
  Relative inhibition (relative ACE inhibitory activity): 0.7%
